Assay results reported in patent publication US7531519B2, “Polygalatenosides and use thereof as an antidepressant agent” (Medical and Pharmaceutical Industry Technology and …, priority 2006, dated 2009).

Molecular target: T1, human norepinephrine transporter (Homo sapiens, UniProt P23975)
T1 construct: expressed in transfected cells; host or cells: MDCK (dog kidney) cells, stably transfected; total cell membranes
Test: [125I]RTI-55 membrane binding assay
Conditions: for IC50: membranes of MDCK cells transfected with human NET, 0.2 nM [125I]RTI-55, 4° C., 3 h, read-out: IC50, inhibition of [125I]RTI-55 binding to norepinephrine transporter; for inhibition of [125I]RTI-55 binding to norepinephrine transporter (result in words): qualitative statement
Method: Membrane Binding Assay. Membranes from dog kidney MDCK cells, which stably transfected with the human norepinephrine transporter, were used. Total cell membranes were prepared from transfected cells grown to confluence in 500 cm^2 tissue culture dishes. Cells were scraped into centrifuge tube and pelleted at 900 g and 4° C. for 10 min. The pellets were resuspended in modified Tris-HCl buffer (50 mM Tris-HCl, 100 mM NaCl, 1 μM leupetin, 10 μM PMSF; pH 7.4), and centrifuged at 17000 g and 4° C. for 30 min. Then, the pellets were resuspended, homogenized with a glass homogenizer with a Teflon pestle and centrifuged at 17000 g and 4° C. for 90 minutes. Pellets were collected and resuspended in modified Tris-HCl buffer. Protein concentrations were determined using BCA protein assay reagent (Pierce, Rockford). […] The binding was terminated by rapid vacuum filtration over Whatman GF/B filters soaked in 0.3% polyethylineimine followed by three rapid 1 mL washes in ice-cold buffer. Bound radioactivity was measured by gamma emission spectrometry. Non-specific binding was determined in the presence of 10 μM desipramine and was subtracted from the data in the absence of desipramine to yield specific binding.

T1 sequence (P23975 whole entry): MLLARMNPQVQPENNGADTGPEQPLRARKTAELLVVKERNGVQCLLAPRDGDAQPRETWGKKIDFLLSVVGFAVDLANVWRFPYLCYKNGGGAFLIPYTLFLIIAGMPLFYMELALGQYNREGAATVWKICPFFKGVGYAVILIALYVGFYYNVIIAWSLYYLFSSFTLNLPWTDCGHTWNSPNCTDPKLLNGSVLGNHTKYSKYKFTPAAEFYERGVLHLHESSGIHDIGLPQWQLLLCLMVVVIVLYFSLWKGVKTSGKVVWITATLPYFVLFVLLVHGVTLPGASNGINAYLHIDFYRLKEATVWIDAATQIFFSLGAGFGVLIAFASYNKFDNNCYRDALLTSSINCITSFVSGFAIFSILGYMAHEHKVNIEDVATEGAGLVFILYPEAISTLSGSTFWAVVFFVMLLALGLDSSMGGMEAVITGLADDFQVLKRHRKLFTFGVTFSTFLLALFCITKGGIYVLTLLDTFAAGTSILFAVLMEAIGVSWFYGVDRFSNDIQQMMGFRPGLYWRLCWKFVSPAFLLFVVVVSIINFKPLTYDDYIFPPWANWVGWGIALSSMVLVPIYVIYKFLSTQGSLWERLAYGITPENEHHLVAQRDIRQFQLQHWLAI

IC50 [µM]	inhibition of [125I]RTI-55 binding to norepinephrine transporter (result in words)	Compound
30	more potent than the others	O=C(OCC1OC(OC2COC(CO)C(O)C2O)C(O)C(O)C1O)c1ccccc1 (stereo not drawn) [Compound 1, 6-O-benzoyl polygolitosyl-(2→1)-α-galactose]
6.04	more potent than the others	O=C(OC1C(O)C(CO)OC(OC2COC(CO)C(O)C2O)C1O)c1ccccc1 (stereo not drawn) [Compound 2, 3-O-benzoyl-polygolitosyl-(2→1)-α-galactose]
